Columns and labels:
[1] = target: Recombinant human CD33 protein (Homo sapiens (Human), UniProt P20138); assay: CD33 competitive binding assay for HTS drug screen (fluorescent multivalent sialic acid probe)
Procedure, shortened: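 Inhibition was read as reduced retention of a fluorescent multivalent sialic acid complex (final 5 μM neutravidin, 15 μM A-375, 5 μM biotin-4-FITC) on plate-immobilized human CD33. Compound was added first, the probe followed for 30 min at room temperature in PBS with 0.2% Tween-20 and 0.5% BSA, and FITC was measured after a wash.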

[2] = target: Recombinant Human Siglec-3/CD33 protein (His-CD33) (Homo sapiens (Human), UniProt P20138); assay: Differential scanning fluorimetry (DSF) thermal shift assay; type: binding
[3] = difference in thermal melt of CD33 protein (0.5 μM) with 50 μM compound
[4] = thermal melt shift of 0.5 μM CD33 protein with 50 μM compound

Recombinant human CD33 protein, sequence (P20138 18-259): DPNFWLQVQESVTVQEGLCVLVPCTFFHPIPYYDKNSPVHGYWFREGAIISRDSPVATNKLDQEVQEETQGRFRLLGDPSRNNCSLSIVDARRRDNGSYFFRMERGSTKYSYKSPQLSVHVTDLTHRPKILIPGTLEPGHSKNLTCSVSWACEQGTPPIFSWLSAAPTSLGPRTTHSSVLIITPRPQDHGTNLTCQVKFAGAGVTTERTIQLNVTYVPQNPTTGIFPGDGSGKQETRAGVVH
Recombinant Human Siglec-3/CD33 protein (His-CD33), sequence (P20138 18-259): as above

SMILES | EC50 [1] [nM] | DSF (dTmD) [2, 3] [°C] | DSF (dTmD) [2, 4]
Cc1cc2cc(C)c1OCCO[C@@H]1C[C@H](OC/C=C/CC[C@]3(C(=O)O)C[C@H](O)[C@@H](NC(=O)Cn4cc(C5CCCCC5)nn4)[C@@H](O3)[C@H](O)[C@H](O)CNC2=O)N(C(=O)C2CCCOC2)C1 (some centres unmarked) [A-358] | 9430 | 3.5 | –
CC(=O)N[C@H]1[C@H]([C@H](O)[C@H](O)CNC(=O)c2cc(C)c(O)c(C)c2)O[C@@](CC2OC(C)(C)O[C@H]2c2cccc(NC(=O)c3ccc4cc[nH]c4c3)c2)(C(=O)O)C[C@@H]1O (some centres unmarked) [A-302] | 1500 | 4.9 | –
C=CC[C@@]1(NCC[C@]2(C(=O)O)C[C@H](O)[C@@H](NC(C)=O)[C@H]([C@H](O)[C@H](O)CNC(=O)c3cc(C)c(O)c(C)c3)O2)CCN(C(=O)OC(C)(C)C)C1 [A-032] | 181 | – | 8.4
CC(=O)N[C@H]1[C@H]([C@H](O)[C@H](O)CNC(=O)c2cc(C)c(O)c(C)c2)O[C@@](CC2COC(C)(C)O2)(C(=O)O)C[C@@H]1O (some centres unmarked) [A-307] | 103000 | 0.0 | –
Cc1ccc(CNC(=O)C2CCCOC2)cc1/C=C/C[C@]1(C(=O)O)C[C@H](O)[C@@H](NC(=O)Cn2cc(C3CCCCC3)nn2)[C@H]([C@H](O)[C@H](O)CNC(=O)c2cc(C)c(O)c(C)c2)O1 (some centres unmarked) [A-286] | 2840 | 2.2 | –
Cc1cc(C(=O)NC[C@@H](O)[C@@H](O)[C@@H]2O[C@@](C/C=C/c3ccc4c(c3)C(NC(=O)C3CCCOC3)CC4)(C(=O)O)C[C@H](O)[C@H]2NC(=O)Cn2cc(C3CCCCC3)nn2)cc(C)c1O (some centres unmarked) [A-284] | 1660 | 6.8 | –
CC(=O)N[C@H]1[C@H]([C@H](O)[C@H](O)CNC(=O)c2cc(C)c(O)c(C)c2)O[C@@](CC2OC(C)(C)O[C@H]2c2ccccc2CNC(=O)OC(C)(C)C)(C(=O)O)C[C@@H]1O (some centres unmarked) [A-310] | 3240 | 3.5 | –
CNC(=O)c1cccc(COC(=O)NCC(=O)NC2CCCCC2O[C@]2(C(=O)O)C[C@H](O)[C@@H](NC(=O)Cn3cc(C4CCCCC4)nn3)[C@H]([C@H](O)[C@H](O)CNC(=O)c3cc(C)c(O)c(C)c3)O2)c1 (some centres unmarked) [A-327] | 6610 | 3.2 | –
CC(=O)N[C@H]1[C@H]([C@H](O)[C@H](O)CNC(=O)c2coc(C)c2)O[C@@](CCN2CCOC[C@@]23CCN(C(=O)OC(C)(C)C)C3)(C(=O)O)C[C@@H]1O [A-158] | 133 | – | 10.4
CC(=O)N[C@H]1[C@H]([C@H](O)[C@H](O)CNC(=O)c2ccc(F)c(Br)c2)O[C@@](CCN2CCOC[C@@]23CCN(C(=O)OC(C)(C)C)C3)(C(=O)O)C[C@@H]1O [A-132] | 51 | – | 12.4
CC(=O)N[C@H]1[C@H]([C@H](O)[C@H](O)CNC(=O)c2cc(C)c(O)c(C)c2)O[C@@](CCN2CCOC[C@@]23CCN(C(=O)Nc2ccc(C)cc2)C3)(C(=O)O)C[C@@H]1O [A-053] | 147 | – | 9.2
CC(=O)N[C@H]1[C@H]([C@H](O)[C@H](O)CNC(=O)c2cc(C)c(O)c(C)c2)O[C@@](CCN2C[C@H](C)OC[C@@]23CCN(C(=O)OC(C)(C)C)C3)(C(=O)O)C[C@@H]1O [A-005] | 7 | – | 14.1
CC(=O)N[C@H]1[C@H]([C@H](O)[C@H](O)CNC(=O)c2cc(C)c(O)c(C)c2)O[C@@](CCN2CCOC[C@@]23CCN(C(=O)N2CCC(F)(F)CC2)C3)(C(=O)O)C[C@@H]1O [A-065] | 739 | – | 6.1
CC(=O)N[C@H]1[C@H]([C@H](O)[C@H](O)CNC(=O)c2cc(C)c(O)c(C)c2)O[C@@](CCN2CCOC[C@@]23CCN(C(=O)N(C)C)C3)(C(=O)O)C[C@@H]1O [A-064] | 3500 | – | 3.5
CC(=O)N[C@H]1[C@H]([C@H](O)[C@H](O)CNC(=O)c2cc(Br)[nH]n2)O[C@@](CCN2CCOC[C@@]23CCN(C(=O)OC(C)(C)C)C3)(C(=O)O)C[C@@H]1O [A-133] | 46 | – | 11.4
CC(=O)N[C@H]1[C@H]([C@H](O)[C@H](O)CNC(=O)c2cc(C)c(O)c(C)c2)O[C@@](CCN2CCOC[C@@]23CCN(C(=O)C2(C)COC2)C3)(C(=O)O)C[C@@H]1O [A-100] | 2340 | – | 5.6
COc1ccc(C(=O)NC[C@@H](O)[C@@H](O)[C@@H]2O[C@@](CCN3CCOC[C@@]34CCN(C(=O)OC(C)(C)C)C4)(C(=O)O)C[C@H](O)[C@H]2NC(C)=O)cc1OC [A-120] | 40 | – | 12.2

SMILES | EC50 [1] [nM] | DSF (dTmD) [2, 3] [°C] | DSF (dTmD) [2, 4]
CC(=O)N[C@H]1[C@H]2O[C@](C(=O)O)(C/C=C/COC[C@@H](NC(=O)[C@@H]3CCCOC3)COCCCOc3c(C)cc(cc3C)C(=O)NC[C@@H](O)[C@H]2O)C[C@@H]1O [A-336] | 4190 | 3.6 | –
COc1c(C)cc(C(=O)NC[C@@H](O)[C@@H](O)[C@@H]2O[C@@](CCN3CCOC[C@@]34CCN(C(=O)OC(C)(C)C)C4)(C(=O)O)C[C@H](O)[C@H]2NC(C)=O)cc1C [A-118] | 60 | – | 12.1
CC(=O)N[C@H]1[C@H]([C@H](O)[C@H](O)CNC(=O)c2cc(C)c(O)c(C)c2)O[C@@](CCN2CCOC[C@@]23CCN(C(=O)N(C)C(C)C)C3)(C(=O)O)C[C@@H]1O [A-061] | 235 | – | 7.5
CC(=O)N[C@H]1[C@H]([C@H](O)[C@H](O)CNC(=O)c2cc(C)c(O)c(C)c2)O[C@@](C[C@@H]2COC[C@]3(CCN(C(=O)OC(C)(C)C)C3)N2)(C(=O)O)C[C@@H]1O [A-225] | 552 | 6.4 | –
Cc1cc(C(=O)NC[C@@H](O)[C@@H](O)[C@@H]2O[C@@](C/C=C/c3cccc(CNC(=O)c4cnccn4)c3)(C(=O)O)C[C@H](O)[C@H]2NC(=O)Cn2cc(C3CCCCC3)nn2)cc(C)c1O [A-270] | 2800 | 6.0 | –
CC(=O)N[C@H]1[C@H]([C@H](O)[C@H](O)CNC(=O)c2cc(C)c(O)c(C)c2)O[C@@](CCN2CCOC[C@@]23CCN(C(=O)C2CC(C)(C)C2)C3)(C(=O)O)C[C@@H]1O [A-080] | 68 | – | 10.2
CC(=O)N[C@H]1[C@H]([C@H](O)[C@H](O)CNC(=O)c2ccc3c(cnn3C)c2)O[C@@](CCN2CCOC[C@@]23CCN(C(=O)OC(C)(C)C)C3)(C(=O)O)C[C@@H]1O [A-124] | 28 | – | 13.4
CC(=O)N[C@H]1[C@H]([C@H](O)[C@H](O)CNC(=O)c2cc(C)c(O)c(C)c2)O[C@@](CC2OC(C)(C)O[C@H]2c2cccc(NC(=O)C(=O)[C@H](C)c3cc(C4CC4)no3)c2)(C(=O)O)C[C@@H]1O (some centres unmarked) [A-305] | 792 | 5.4 | –
Cc1cc(C(=O)NC[C@@H](O)[C@@H](O)[C@@H]2O[C@@](OC3CCCCC3NC(=O)Cn3cc(CNC(=O)N4CCOCC4)nn3)(C(=O)O)C[C@H](O)[C@H]2NC(=O)Cn2cc(C3CCCCC3)nn2)cc(C)c1O (some centres unmarked) [A-334] | 7700 | 2.8 | –
CC(=O)N[C@H]1[C@H]([C@H](O)[C@H](O)CNC(=O)c2cccc(Br)c2)O[C@@](CCN2CCOC[C@@]23CCN(C(=O)OC(C)(C)C)C3)(C(=O)O)C[C@@H]1O [A-116] | 42 | – | 12.4
CC(=O)N[C@H]1[C@H]([C@H](O)[C@H](O)CNC(=O)c2cc(C)cc(C)c2)O[C@@](CCN2CCOC[C@@]23CCN(C(=O)OC(C)(C)C)C3)(C(=O)O)C[C@@H]1O [A-190] | 119 | – | 10.1
CNC(=O)c1c(C)cc(C(=O)NC[C@@H](O)[C@@H](O)[C@@H]2O[C@@](CCN3CCOC[C@@]34CCN(C(=O)OC(C)(C)C)C4)(C(=O)O)C[C@H](O)[C@H]2NC(C)=O)cc1C [A-164] | 1560 | – | 5.3
C=CC[C@]1(NCC[C@]2(C(=O)O)C[C@H](O)[C@@H](NC(C)=O)[C@H]([C@H](O)[C@H](O)CNC(=O)c3cc(C)c(O)c(C)c3)O2)CCN(C(=O)OC(C)(C)C)C1 [A-033] | 1610 | – | 6.1
CC(=O)N[C@H]1[C@H]([C@H](O)[C@H](O)CNC(=O)c2cc(C)c(O)c(C)c2)O[C@@](C/C=C/c2cccc(CNC(=O)c3ccc4[nH]nnc4c3)c2)(C(=O)O)C[C@@H]1O [A-237] | 5030 | 0.8 | –
CC(=O)N[C@H]1[C@H]([C@H](O)[C@H](O)CNC(=O)c2c[nH]c(C)c2)O[C@@](CCN2CCOC[C@@]23CCN(C(=O)OC(C)(C)C)C3)(C(=O)O)C[C@@H]1O [A-113] | 34 | – | 11.1
COC(=O)[C@@]1(CCN2CCOC[C@@]23CCN(C(=O)OC(C)(C)C)C3)C[C@H](O)[C@@H](NC(C)=O)[C@H]([C@H](O)[C@H](O)CNC(=O)c2cc(C)c(O)c(C)c2)O1 [A-361] | 49000 | −0.3 | –
CC(=O)N[C@H]1[C@H]([C@H](O)[C@](C)(O)CNC(=O)c2cc(C)c(O)c(C)c2)O[C@@](CCN2CCOC[C@@]23CCN(C(=O)OC(C)(C)C)C3)(C(=O)O)C[C@@H]1O [A-204] | 582 | 5.0 | –

From patent publication US20250313574A1, “SIALIC ACID DERIVATIVES AND METHODS OF USING SAME” (EISAI R&D MANAGEMENT CO., LTD., priority 2022, published 2025)
